# “Also recorded” adds a separate entry of the source. Where two headings read alike, the source gives them in different places.
# Legend:
# platelet aggregation [1] = assay: inhibition of platelet aggregation in vitro; assay type: cell-based, human; conditions: molar basis, PGI2 compared to forskolin
# [2] = system: B16 amelanotic melanoma cells; assay: PGI2 reduction of pulmonary tumor colonization by tail vein injected B16 amelanotic melanoma cells (Honn et al.); assay type: in vivo, mouse; conditions: PGI2 (Honn) compared with forskolin (applicant)
# Description: Since tumor cell-platelet interactions play a role in tumor metastasis, several laboratories have examined anticoagulants and anti-aggregating agents, such as heparin, warfarin (Hagmar and Norrby, Vol. 5 Int. J. Cancer, pp. 72-84, [1970]; Lione and Bosmann, Vol. 2 Cell Biol. Int. Res., pp. 81-86 [1972]; Hoover and Ketcham, Vol. 35 Cancer, pp. 5-14 [1975]); aspirin (Gasic et al., Lancet II, pp. 932-933 [1972]; Wood and Hilgard, Lancet II, pp. 1416-1416 [1972]; Hilgard et al., Vol. 86 Z. Krebsforsch., pp. 243-250 [1976]) and dipyridamole (Hilgard in Interaction of Platelets and Tumor Cells, pp. 143-158, Jameson [ed.] [1982]; Ambrus et al. in Platelets: A Multidisciplinary Approach, pp. 467-48, de Gaetano [ed.] [1982]) to reduce the incidence of tumor metastasis without treating the tumor per se in experimental animal models. However, the results of many of these studies were inconclusive.
# [3] = system: B16 amelanotic melanoma cells; conditions: cited from earlier work
# [4] = system: human platelet aggregation induced by B16-F10 melanoma cells; assay: B16-F10 melanoma cell-induced human platelet aggregation in vitro (light transmission in platelet-rich plasma); assay type: cell-based
# Method: A mouse melanoma subline, B16-F10, (highly metastatic to the lungs) was obtained from EG & G Mason Research Institute, Worcester, MA, and adapted to growth in cell culture. The cultured cells were harvested by 1 min of trypsinization (0.25% trypsin-0.1% EDTA) or with the use of a rubber policeman, washed gently three times with Hank's balanced salts solution (HBBS, free of Ca^++ and Mg^++). […] Freshly drawn whole blood from healthy adult human donors was anticoagulated with heparin (5 units/ml). […] Platelet-rich plasma (PRP) was separated by centrifugation of the whole blood and platelet aggregation was measured in PRP by recording the increase in light transmission after the addition of the tumor cells.
# Washed B16-F10 cell suspensions (2×10^7 /ml) were treated with potato apyrase (1 unit/ml) for about 5 min to degrade exogenous adenine nucleotides. Fifty microliters of the cell suspension was then added to the platelet-rich plasma after an incubation of 5 min with (A) 5 microliters DMSO (10% in saline) (Control) or (B) 5 microliters forskolin (200 micro Molars in DMSO 10% in saline). Final concentration of forskolin in PRP (500 microliters) was 2 micromolars.
# The in vitro experimental procedure of Example I above was repeated using a combination of forskolin and oxagrelate. In this example the cell suspension was added to platelet-rich plasma incubated with a mixture of forskolin and oxagrelate.
# B16-F10 melanoma cells = assay: pulmonary tumor colonization after tail vein injection of B16-F10 cells; assay type: in vivo, mouse (C57BL/6)
# Method: (§1) Washed B16-F10 tumor cells (2 or 3×10^5) in 100 microliters Hanks balanced salts solution were injected from the tail vein 60 min (Exp. 1) or 30 min (Exp. 2, 3) after i.p. injection of 200 microliters DMSO (20 percent in saline) in control group; or forskolin (5 mM) prepared in DMSO (100 percent) and diluted to 1 mM with saline just before injection. The mice were sacrificed after 9 days (Exp. 1) or 14 days (Exp. 2, 3) and the lungs removed for examination. The tumor foci were counted with the help of a dissecting microscope.
# The in vivo experimental procedure of Example II above was also repeated using a combination of forskolin and oxagrelate.
# mice [5] = assay: overt toxicity observation in mice after i.p. administration; assay type: in vivo, mouse (C57BL/6); conditions: 82 micrograms/mouse
# Method: as §1, with “microscope. […] FIG. 2 presents typical specimens of lungs from untreated and forskolin-treated mice of experiments 2 and 3.” for “microscope.”
# [6] = system: membrane adenylate cyclase; conditions: human platelets, via stimulation of membrane adenylate cyclase; cited from earlier work
# platelet aggregation [7] = conditions: induced by a wide variety of aggregation stimulators; cited from earlier work
# mice [8] = conditions: cited from earlier work
Structure (SMILES),potency in inhibiting platelet aggregation in vitro relative to forskolin (platelet aggregation [1]),"potency as inhibitor of pulmonary tumor metastasis, PGI2 versus forskolin [2]",decrease in pulmonary tumor foci ([3]; PGI2 50-200 micrograms/mouse (Honn)),"pulmonary tumor colonization ([3]; PGI2, i.v. injection (Honn et al. 1981))","inhibition at 0.4 µM ([4]; Homo sapiens, B16-F10, forskolin 0.4 micromolar alone, read-out: inhibition of tumor cell-induced platelet aggregation)","melanoma cell-induced human platelet aggregation, inhibition ([4]; forskolin 2 micromolar, 5 min preincubation of PRP, B16-F10 2×10^6/ml)",in vitro inhibitory effect in combination with 2-fluoroadenosine ([4]; forskolin combined with 2-fluoroadenosine (F-Ado)),in vitro inhibitory effect in combination with prostaglandin E ([4]; forskolin combined with prostaglandin E),"Median number of pulmonary tumor foci (B16-F10 melanoma cells; Experiment 1, 2×10^5 cells/mouse, i.p. 60 min before, 9 days, control median 189)","Median number of pulmonary tumor foci (B16-F10 melanoma cells; Experiment 2, 3×10^5 cells/mouse, i.p. 30 min before, 14 days, control median 210)","Median number of pulmonary tumor foci (B16-F10 melanoma cells; Experiment 3, 3×10^5 cells/mouse, i.p. 30 min before, 14 days, control median >600 (estimated))","No. of pulmonary tumor foci (per mouse) (B16-F10 melanoma cells; Experiment 3, 3×10^5 cells/mouse, i.p. 30 min before, 14 days, mice about 5 weeks old, control >600 (estimated))","appearance of tumor foci (dissecting microscope) (B16-F10 melanoma cells; experiments 2 and 3, compared with untreated mice)",direct effect on melanoma cells (B16-F10 melanoma cells; forskolin i.p. prior to tail vein injection of cells),overt signs of toxicity (mice [5]),increase of intracellular concentration of cyclic AMP [6],inhibition of human platelet aggregation (platelet aggregation [7]),LD 50 (mice [8]; i.p.),LD 50 (mice [8]; per OS),"inhibition at 20 µM ([4]; Homo sapiens, B16-F10, oxagrelate 20 micromolar alone, read-out: inhibition of tumor cell-induced platelet aggregation)"
"CCCCC[C@H](O)/C=C/[C@@H]1[C@H]2C/C(=C/CCCC(=O)O)O[C@H]2C[C@H]1O [PGI2, prostacyclin]",several hundred-fold more potent,similar,greater than 50%,reduces pulmonary tumor colonization,,,,,,,,,,,,,,,,
"C=C[C@@]1(C)CC(=O)[C@]2(O)[C@@]3(C)[C@@H](O)CCC(C)(C)[C@@H]3[C@H](O)[C@H](OC(C)=O)[C@@]2(C)O1 [forskolin, 7 beta-acetoxy-8,13-epoxy-1 alpha,6 beta,9 alpha trihydroxy-labd-14-en-11-one]",,similar,,,20%,strongly inhibits; also recorded: strongly blocked,potentiated,potentiated,3.1,1,149.5,"219,250,281",smaller and more superficial,without effecting the melanoma cells directly,No overt signs of toxicity,several-fold,blocks human platelet aggregation,105 mg/kg,"3,100 mg/kg",
CCOC(=O)c1c(C)cc2c(CO)nnc(O)c2c1C [oxagrelate],,,,,,,,,,,,,,,,,,,,20%

# Reference: US4751224A, “Treatment of metastasis” (Brown University Research Foundation, priority 1986, dated 1988)
